In PMC11576293, “New series of 4,6-diaryl pyrimidines: facile synthesis and antiproliferative activity as dual EGFR/VEGFR-2 inhibitors” (Frontiers in Chemistry, 2024):

Legend:
Assay in all cases: NCI-60 single-dose screen
Assay type in all cases: cell-based
[1] = test system: SK-MEL-28; conditions: Homo sapiens, single dose 10 µM, '-' = no inhibition, read-out: % Growth Inhibition
Protocol: (§1) The National Cancer Institute’s Developmental Therapeutic Program (www.dtp.nci.nih.gov) has tested compounds 9–29 (except compounds 21 and 22) against 60 cancer cell lines from nine types (leukemia, lung, colon, CNS, melanoma, ovarian, renal, prostate, and breast cancer) at a single dose (10 μM) ([El-Sherief et al., 2018]). […] The most sensitive cells included leukemia (SR, K-562, and MOLT-4), lung (NCI-H522, […], and EKVX), breast (MCF-7 and T-47D), colon (HCT-15 and HT-29), and ovarian (NCI/ADR-RES).
(§2) The National Cancer Institute’s Developmental Therapeutic Program (www.dtp.nci.nih.gov) evaluated compounds 9–29 (excluding 21 and 22) against 60 cancer cell lines from nine categories (leukemia, lung, colon, CNS, melanoma, ovarian, renal, prostate, and breast cancer) at a single dose (10 μM) ([El-Sherief et al., 2018]). See Supplementary Material A1 for more details.

[2] = test system: UACC-62; conditions: Homo sapiens, single dose 10 µM, '-' = no inhibition, read-out: % Growth Inhibition
Protocol: as §1, §2

[3] = test system: DU-145; conditions: Homo sapiens, single dose 10 µM, '-' = no inhibition, read-out: % Growth Inhibition
Protocol: as §1, §2

[4] = test system: U251; conditions: Homo sapiens, U-251, single dose 10 µM, '-' = no inhibition, read-out: % Growth Inhibition
Protocol: as §1, §2

[5] = test system: OVCAR-5; conditions: Homo sapiens, single dose 10 µM, '-' = no inhibition, read-out: % Growth Inhibition
Protocol: as §1, §2

[6] = test system: SNB-75; conditions: Homo sapiens, single dose 10 µM, '-' = no inhibition, read-out: % Growth Inhibition
Protocol: as §1, §2

[7] = test system: KM12; conditions: Homo sapiens, single dose 10 µM, '-' = no inhibition, read-out: % Growth Inhibition
Protocol: as §1, §2

[8] = test system: NCI-H23; conditions: Homo sapiens, single dose 10 µM, '-' = no inhibition, read-out: % Growth Inhibition
Protocol: as §1, §2

[9] = test system: SF-268; conditions: Homo sapiens, single dose 10 µM, '-' = no inhibition, read-out: % Growth Inhibition
Protocol: as §1, §2

[10] = test system: SK-MEL-5; conditions: Homo sapiens, single dose 10 µM, '-' = no inhibition, read-out: % Growth Inhibition
Protocol: as §1, §2

[11] = test system: HOP-92; conditions: Homo sapiens, single dose 10 µM, '-' = no inhibition, read-out: % Growth Inhibition
Protocol: as §1, §2

[12] = test system: OVCAR-3; conditions: Homo sapiens, single dose 10 µM, '-' = no inhibition, read-out: % Growth Inhibition
Protocol: as §1, §2

[13] = test system: UO-31; conditions: Homo sapiens, single dose 10 µM, '-' = no inhibition, read-out: % Growth Inhibition
Protocol: as §1, §2

[14] = test system: HS 578T; conditions: Homo sapiens, single dose 10 µM, '-' = no inhibition, read-out: % Growth Inhibition
Protocol: as §1, §2

[15] = test system: NCI/ADR-RES; conditions: Homo sapiens, single dose 10 µM, '-' = no inhibition, read-out: % Growth Inhibition
Protocol: as §1, §2

[16] = test system: ACHN 1; conditions: Homo sapiens, single dose 10 µM, '-' = no inhibition, read-out: % Growth Inhibition
Protocol: as §1, §2

[17] = test system: OVCAR-4; conditions: Homo sapiens, single dose 10 µM, '-' = no inhibition, read-out: % Growth Inhibition
Protocol: as §1, §2

[18] = test system: HCT-116; conditions: Homo sapiens, single dose 10 µM, '-' = no inhibition, read-out: % Growth Inhibition
Protocol: as §1, §2

[19] = test system: PC-3; conditions: Homo sapiens, single dose 10 µM, '-' = no inhibition, read-out: % Growth Inhibition
Protocol: as §1, §2

[20] = test system: RPMI-8226; conditions: Homo sapiens, single dose 10 µM, '-' = no inhibition, read-out: % Growth Inhibition
Protocol: as §1, §2

[21] = test system: HCT-15; conditions: Homo sapiens, single dose 10 µM, '-' = no inhibition, read-out: % Growth Inhibition
Protocol: as §1, §2

[22] = test system: NCI-H522; conditions: Homo sapiens, single dose 10 µM, '-' = no inhibition, read-out: % Growth Inhibition
Protocol: as §1, §2

[23] = test system: HOP-62; conditions: Homo sapiens, single dose 10 µM, '-' = no inhibition, read-out: % Growth Inhibition
Protocol: as §1, §2

[24] = test system: A549/ATCC; conditions: Homo sapiens, single dose 10 µM, '-' = no inhibition, read-out: % Growth Inhibition
Protocol: as §1, §2

[25] = test system: IGROV1; conditions: Homo sapiens, IGROV-1, single dose 10 µM, '-' = no inhibition, read-out: % Growth Inhibition
Protocol: as §1, §2

[26] = test system: M14; conditions: Homo sapiens, single dose 10 µM, '-' = no inhibition, read-out: % Growth Inhibition
Protocol: as §1, §2

[27] = test system: NCI-H322M; conditions: Homo sapiens, single dose 10 µM, '-' = no inhibition, read-out: % Growth Inhibition
Protocol: as §1, §2

[28] = test system: COLO 205; conditions: Homo sapiens, single dose 10 µM, '-' = no inhibition, read-out: % Growth Inhibition
Protocol: as §1, §2

[29] = test system: MALME-3M; conditions: Homo sapiens, single dose 10 µM, '-' = no inhibition, read-out: % Growth Inhibition
Protocol: as §1, §2

[30] = test system: A498; conditions: Homo sapiens, single dose 10 µM, '-' = no inhibition, read-out: % Growth Inhibition
Protocol: as §1, §2

[31] = test system: SF-539; conditions: Homo sapiens, single dose 10 µM, '-' = no inhibition, read-out: % Growth Inhibition
Protocol: as §1, §2

[32] = test system: HCC-2998; conditions: Homo sapiens, single dose 10 µM, '-' = no inhibition, read-out: % Growth Inhibition
Protocol: as §1, §2

[33] = test system: EKVX; conditions: Homo sapiens, single dose 10 µM, '-' = no inhibition, read-out: % Growth Inhibition
Protocol: as §1, §2

[34] = test system: NCI-H460; conditions: Homo sapiens, single dose 10 µM, '-' = no inhibition, read-out: % Growth Inhibition
Protocol: as §1, §2

[35] = test system: LOX IMVI; conditions: Homo sapiens, single dose 10 µM, '-' = no inhibition, read-out: % Growth Inhibition
Protocol: as §1, §2

[36] = test system: 786-0; conditions: Homo sapiens, single dose 10 µM, '-' = no inhibition, read-out: % Growth Inhibition
Protocol: as §1, §2

[37] = test system: SNB-19; conditions: Homo sapiens, single dose 10 µM, '-' = no inhibition, read-out: % Growth Inhibition
Protocol: as §1, §2

[38] = test system: CCRF-CEM; conditions: Homo sapiens, single dose 10 µM, '-' = no inhibition, read-out: % Growth Inhibition
Protocol: as §1, §2

[39] = test system: T-47D; conditions: Homo sapiens, T47D, single dose 10 µM, '-' = no inhibition, read-out: % Growth Inhibition
Protocol: as §1, §2

[40] = test system: MDA-MB-468; conditions: Homo sapiens, single dose 10 µM, '-' = no inhibition, read-out: % Growth Inhibition
Protocol: as §1, §2

[41] = test system: MCF7; conditions: Homo sapiens, single dose 10 µM, '-' = no inhibition, read-out: % Growth Inhibition
Protocol: as §1, §2

[42] = test system: SK-OV-3; conditions: Homo sapiens, single dose 10 µM, '-' = no inhibition, read-out: % Growth Inhibition
Protocol: as §1, §2

[43] = test system: RXF 393; conditions: Homo sapiens, single dose 10 µM, '-' = no inhibition, read-out: % Growth Inhibition
Protocol: as §1, §2

[44] = test system: SF-295; conditions: Homo sapiens, single dose 10 µM, '-' = no inhibition, read-out: % Growth Inhibition
Protocol: as §1, §2

[45] = test system: SK-MEL-2; conditions: Homo sapiens, single dose 10 µM, '-' = no inhibition, read-out: % Growth Inhibition
Protocol: as §1, §2

[46] = test system: CAKI-1; conditions: Homo sapiens, single dose 10 µM, '-' = no inhibition, read-out: % Growth Inhibition
Protocol: as §1, §2

[47] = test system: SR; conditions: Homo sapiens, single dose 10 µM, '-' = no inhibition, read-out: % Growth Inhibition
Protocol: as §1, §2

[48] = test system: SW-620; conditions: Homo sapiens, single dose 10 µM, '-' = no inhibition, read-out: % Growth Inhibition
Protocol: as §1, §2

Structure (SMILES): COc1ccc(-c2cc(-c3ccc(Cl)cc3)nc(SC)n2)cc1 [Compound 9, 4-(4-Chlorophenyl)-6-(4-methoxyphenyl)-2-(methylthio)pyrimidine]
- inhibition at 10 µM [1]: < 0%
- inhibition at 10 µM [2]: 26%
- inhibition at 10 µM [3]: 5.68%
- inhibition at 10 µM [4]: 3.42%
- inhibition at 10 µM [5]: < 0%
- inhibition at 10 µM [6]: < 0%
- inhibition at 10 µM [7]: 5.71%
- inhibition at 10 µM [8]: 9.87%
- inhibition at 10 µM [9]: 4.44%
- inhibition at 10 µM [10]: 4.98%
- inhibition at 10 µM [11]: 3.16%
- inhibition at 10 µM [12]: < 0%
- inhibition at 10 µM [13]: 18.1%
- inhibition at 10 µM [14]: 7.95%
- inhibition at 10 µM [15]: 9.84%
- inhibition at 10 µM [16]: 4.08%
- inhibition at 10 µM [17]: 4.46%
- inhibition at 10 µM [18]: 5.47%
- inhibition at 10 µM [19]: 6.22%
- inhibition at 10 µM [20]: 10.8%
- inhibition at 10 µM [21]: 15%
- inhibition at 10 µM [22]: 16%
- inhibition at 10 µM [23]: 9.16%
- inhibition at 10 µM [24]: 7.56%
- inhibition at 10 µM [25]: 3.15%
- inhibition at 10 µM [26]: 3.51%
- inhibition at 10 µM [27]: 14.3%
- inhibition at 10 µM [28]: 0.19%
- inhibition at 10 µM [29]: 11.3%
- inhibition at 10 µM [30]: < 0%
- inhibition at 10 µM [31]: 6.28%
- inhibition at 10 µM [32]: < 0%
- inhibition at 10 µM [33]: 19.4%
- inhibition at 10 µM [34]: 4.25%
- inhibition at 10 µM [35]: 12.2%
- inhibition at 10 µM [36]: 1.88%
- inhibition at 10 µM [37]: 4.85%
- inhibition at 10 µM [38]: 0.1%
- inhibition at 10 µM [39]: 9.97%
- inhibition at 10 µM [40]: 26.2%
- inhibition at 10 µM [41]: 28.7%
- inhibition at 10 µM [42]: < 0%
- inhibition at 10 µM [43]: 7.91%
- inhibition at 10 µM [44]: 7.84%
- inhibition at 10 µM [45]: < 0%
- inhibition at 10 µM [46]: 28.8%
- inhibition at 10 µM [47]: 12.7%
- inhibition at 10 µM [48]: 6.31%

Structure (SMILES): CCSc1nc(-c2ccc(Cl)cc2)cc(-c2ccc(OC)cc2)n1 [Compound 10, 4-(4-Chlorophenyl)-2-(ethylthio)-6-(4-methoxyphenyl)pyrimidine]
- inhibition at 10 µM [1]: < 0%
- inhibition at 10 µM [2]: < 0%
- inhibition at 10 µM [3]: < 0%
- inhibition at 10 µM [4]: 4.88%
- inhibition at 10 µM [5]: < 0%
- inhibition at 10 µM [6]: 3%
- inhibition at 10 µM [7]: 1.5%
- inhibition at 10 µM [8]: 0.32%
- inhibition at 10 µM [9]: < 0%
- inhibition at 10 µM [10]: 3.36%
- inhibition at 10 µM [11]: < 0%
- inhibition at 10 µM [12]: < 0%
- inhibition at 10 µM [13]: 10.5%
- inhibition at 10 µM [14]: 2.58%
- inhibition at 10 µM [15]: 1.42%
- inhibition at 10 µM [16]: 2.57%
- inhibition at 10 µM [17]: 12.9%
- inhibition at 10 µM [18]: 4.3%
- inhibition at 10 µM [19]: < 0%
- inhibition at 10 µM [20]: 6.56%
- inhibition at 10 µM [21]: 14.4%
- inhibition at 10 µM [22]: 8.82%
- inhibition at 10 µM [23]: < 0%
- inhibition at 10 µM [24]: 11.2%
- inhibition at 10 µM [25]: < 0%
- inhibition at 10 µM [26]: < 0%
- inhibition at 10 µM [27]: < 0%
- inhibition at 10 µM [28]: < 0%
- inhibition at 10 µM [29]: < 0%
- inhibition at 10 µM [30]: 3.38%
- inhibition at 10 µM [31]: < 0%
- inhibition at 10 µM [32]: < 0%
- inhibition at 10 µM [33]: 7.83%
- inhibition at 10 µM [34]: < 0%
- inhibition at 10 µM [35]: < 0%
- inhibition at 10 µM [36]: 3.07%
- inhibition at 10 µM [37]: 0.21%
- inhibition at 10 µM [38]: < 0%
- inhibition at 10 µM [39]: 18.6%
- inhibition at 10 µM [40]: < 0%
- inhibition at 10 µM [41]: 25.5%
- inhibition at 10 µM [42]: < 0%
- inhibition at 10 µM [43]: < 0%
- inhibition at 10 µM [44]: 2.91%
- inhibition at 10 µM [45]: 6.03%
- inhibition at 10 µM [46]: 13.3%
- inhibition at 10 µM [47]: 19.4%
- inhibition at 10 µM [48]: < 0%
